Data reported in patent US9586994B2, “CD44V6-derived peptides for treating breast cancer” (KARLSRUHER INSTITUT FÜR TECHNOLOGIE, priority 2012, dated 2017).
“Also recorded” adds a separate entry of the source. Like-named read-outs stand apart in the source and are kept apart here. No end group written: not given here.

Tests used:
Met = details: N and E of the pentapeptide changed to A, Matzke et al., Cancer Res. (2005), cited from earlier work
CD44v6 = test: HGF-induced activation of Met and ERK in L3.6pl cells (Western blot); assay type: cell-based, human; details: peptide before induction with 10 ng/ml HGF
Description: Serum-starved cells (24 hours) were induced with the growth factor HGF (10 ng/mL) at 37° C. for 5 minutes. Where indicated, the cells were treated with peptides (100 ng/ml) prior to induction at 37° C. for 10 minutes (100 ng/mL CD44v6 peptide or control peptide). Following the induction with HGF, cells were washed with ice-cold phosphate-buffered saline (PBS). To detect activated Met and ERK, cells were lysed in sodium dodecyl sulfate (SDS)—sample buffer containing 100 mM dithiothreitol (DTT), boiled and subjected to western blot analysis using antibodies against phospho-Met and ERK. The loading controls were performed on the same blot after stripping (62.5 mM Tris, pH 6.8, 2% SDS, 0.8% DTT) by probing with the Met respectively Erk antibody. Blots were stained using the enhanced chemiluminescence system (Thermo Fisher Scientific, Schwerte, Germany). Bands in western blot analysis were quantified with the program Image J (National Institutes of Health).
To expand the studies to human pancreatic tumors, the highly metastatic human pancreatic carcinoma cells L3.6pl (Bruns, et al. Neoplasia (1999), 1(1):50-62) were investigated. These cells originate from the […] cells that have been passaged several times in the liver and the pancreas, a step that rendered them more and more metastatic. It was confirmed that Met is dependent on CD44v6 for its activation and signaling in these cells (FIG. 19A). The L3.6pl cells were treated with HGF in the presence or absence of a human v6 peptide of SEQ ID NO: 2 or SEQ ID NO:6 and Met activation and downstream signaling to ERK was measured. Phosphorylation of both Met and ERK was inhibited by the human v6 peptide. Treatment with a corresponding rat v6 peptide (ctrl peptide, SEQ ID NO: 10 or 11) had no influence on receptor activation and signal transduction (FIG. 19A).
The contribution of CD44v6 to Met signaling in the human epithelial pancreatic cancer cells L3.6pl (derived from Colo 357), the cervix carcinoma cells HeLa and the colon cancer cells HT29 were analysed using the CD44v6 peptide (v6 14mer; v6 5mer tested as well, data not shown).

BSp73ASs6 cells = test: Rat syngeneic model, subcutaneous BSp73ASs6 tumors, treatment from one week (metastasis formation); assay type: in vivo; details: rats, s.c. BSp73ASs6
Description: In the case of the rat syngeneic model, 1×10^6 pancreatic cells (BSp73AS and its transfectants) were subcutaneously injected into the right posterior flank of the animals. Tumors developed for four weeks. During this time period animals injected with BSp73ASs6 cells expressing Met-shRNA or control-shRNA received doxycycline in the drinking water. At the end of the experiment, primary tumors were isolated. Lungs and axillary lymph nodes were analyzed. The tissues were incubated for 24 h in a zinc-fixative (0.5 g calcium acetate, 5.0 g zinc acetate, 5.0 g zinc chloride, in 1 L 0.1 M Tris pH 7.4) and embedded in paraffin for further analysis. In case of peptide or antibody treatment tumors developed for one week before the first treatment. Where indicated, animals received 200 μg of peptide or antibody per injection three times per week for four weeks. Tumor growth was monitored weekly using a caliper Animals were killed at day 28 or 30 after start of the treatment.
For histomorphological analysis paraffin-embedded sections of lungs were stained with hematoxylin and eosin and periodic acid-Schiff (H&E or PAS). Serial sections of the whole tissue blocks were examined by analyzing slices every 20 μm; in each slice, the presence and the extension of the metastatic deposit was assessed, according to the procedure routinely used by pathologists to evaluate the presence of micrometastases.
Rat peptides had the sequences KEKWFENEWQGKNP (SEQ ID NO: 10) and NEWQG (SEQ ID NO: 11). BSp73ASs6 cells were subcutaneously injected into syngeneic rats and rat CD44v6 peptides of SEQ ID NO: 10 or SEQ ID NO: 11 (or mouse control peptides) or the CD44v6 antibody (or IgGs as a control) were injected intra-tumoral or intravenously three times a week. […] This is compatible with the fact that also BSp73AS cells or BSp73ASv1-10Δv6 cells can induce the formation of primary tumors similarly to the v6 transfectants.

L3.6pl cells = test: Human orthotopic pancreatic cancer model, L3.6pl cells in nude mice, treatment from day 7; assay type: in vivo, mouse; details: nude mice, orthotopic L3.6pl; 20 μg i.p. three times per week; listed as rat-specific peptide
Description: In the case of the human orthotopic model, L3.6pl pancreatic carcinoma cells (passage 24-26) were suspended in Hank's balanced salt solution (Invitrogen, Karlsruhe, Germany) after trypsinization. The cells were injected orthotopically in the pancreas of male nude mice as described (Bruns C J et al. (1999) Neoplasia 1(1):50-62). Two groups of 15 mice each were injected i.p. 7 days later with either the human v6 peptide respectively rat control peptide (20 μg). For all experiments described and depicted herein either the rat 14mer control peptide or the human 14mer peptide were used. All experiments were then repeated with the rat 5mer control peptide or the human 5mer peptide (N-R-W-H-E, SEQ ID NO: 2). […] The injection was repeated three times per week for 21 days. Two days after the last treatment the animals were killed.
7 μm thick paraffin sections were deparaffinized and rehydrated. For P-Met staining antigen unmasking was achieved by boiling the slides in 1 mM EDTA pH 8.0 followed by incubation for 15 minutes at a sub-boiling temperature, for CD31 staining the sections were treated with Proteinase K (8 μg/ml) for […] at 37° C. For immunofluorescence staining of P-Met, unspecific binding was blocked with 5% goat serum (DAKO, Glostrup, Denmark) (diluted in 1×PBS/0.3% Triton X-100) for 60 minutes. In the case of immunohistochemistry, endogenous peroxidases were at first blocked with 3% H2O2 in PBS followed by incubation with biotin blocking system (Dako, Glostrup, Denmark) and then unspecific binding was inhibited by incubation with 5% FCS in PBS was used for blocking. The sections were incubated with the P-Met antibody (D26, dilution 1:50 in 1×PBS/1% BSA/0.3% Triton X-100), Met antibody (C-28, dilution 1:50), GFP antibody (sc-101525, dilution 1:50) or CD31 antibody (5 μg/ml) over night or VFF18 (5 μg/ml) o/n at 4° C. After washing in PBS the sections were incubated with Alexa Fluor R 546 goat anti-rabbit (in case of immunofluorescence P-Met and Met staining, dilution 1:500) or a biotinylated secondary antibody (for immunohistochemical stainings rabbit anti-rat antibody for VFF18 and CD31, goat anti-rabbit for P-Met, cleaved Caspase-3 and cleaved Caspase-8 and rabbit anti-mouse for GFP, dilution 1:500) for 45 minutes. For DAB staining the sections were treated with a streptavidin-peroxidase conjugate (Dako, Glostrup, Denmark) and developed with DAB (3,3′-diaminobenzidine) substrate system (3,3′-diaminobenzidine; Biozol, Eching, Germany) For immunofluorescence DAPI was used for nuclear staining.
To test the effect of the peptide on tumor growth and metastasis formation the L3.6pl cells were orthotopically injected into the pancreas of immunosuppressed mice (NCI-nu). […] The primary tumor expresses a high amount of CD44v6 (FIG. 19B). […] Indeed, human HGF in a concentration of 3375 pg/ml was detected in the supernatant (see Material and Methods) after 5 days of culture (data not shown).

BSp73ASs6 tumors = details: rat
Description: To avoid autofluorescence of fur, rats were shaved around the tumor prior to imaging. Subsequently, animals were anesthetized using 2% isoflurane and gently fixed on the devices' heated plate for the entire time of data acquisition. To reduce fluorescence background, rats were fed with chlorophyll-reduced food (Provimi Kliba AG, Kaiseraugst, Switzerland) for one week prior NIRF imaging. All in vivo analyses were preceded by native scans of animals without any injection of the fluorescent probe. For in vivo analysis, rats were injected with 200 μg DY681-labeled rat v6 11 mer peptide or the human v6 11 mer peptide via the tail vein. Controls were injected with the equal amount of DY681-labeled mouse v6 11mer peptide. […] All peptides were labeled with the fluorescent dye DY681. Data were acquired at the indicated time after injection of the peptides. […]
DY681 fluorescence was measured using excitation at 670 nm in combination with a 700 nm long-pass emission filter. […] Data sets were analyzed with OptiView (ART).
For in vivo experiments, BSp73ASs6 cells were injected subcutaneously into syngeneic rats. […] The accumulation of the fluorescence was measured in the tumor region by Optix MX2 at the indicated time points. […] Then, in vivo binding kinetics of the Dy681-labeled v6 peptides to the subcutaneous tumors were determined. […]

murine 4T1 cells = test: Syngeneic orthotopic 4T1 mammary carcinoma model in BALB/c mice; assay type: in vivo, mouse
Description: FIG. 27: Treatment with the v6 14mer reduces growth of the primary tumor and macroscopic metastases formation in the lung. 1×10^6 murine 4T1 cells per mouse were diluted in 50 μl RPMI plus 50 μl Matrigel and injected into the […] mammary fat pad of 10 female BALB/c mice. One week after the injection, the mice were either injected intraperitoneally with 20 μg of the murine v6 14mer dissolved in 100 μl PBS or with 20 μg of control peptide (rat v6 14mer) dissolved in 100 μl PBS. The injection was performed 3 times per week for two weeks. After 2 weeks the mice were sacrificed and the primary tumors and the lungs were extracted. A: Overall reduction of the tumor volume in the v6 peptide treated group B: Immunofluorescent staining for the endothelial marker CD34 to monitor vascularization of the primary tumor. Graphic representation of the reduction of the total vessel area. C: The v6 peptides led to a reduction in macroscopic lung metastasis. The black arrows mark examples for metastases. The scale bar corresponds to a size of 1 cm. Statistical evaluation of the average number of lung metastases. Significance was calculated using Student's t test: p*<0.01; **p<0.005. Each group consisted of 5 animals.
All animals were handled according to German regulations for animal experimentation. The animal experiments were approved by the Regierungspräsidium Karlsruhe (35-9185.81/G-83/04). All mice were obtained from Harlan. 1×10^6 murine 4T1 cells (diluted in either […] of control peptide or […] of CD44v6 peptide (peptides of SEQ ID No.: 6 were tested) in PBS) were orthotopically injected into the mammary fat pad of female BALB/c mice. In succession, 5 of the mice were injected intraperitoneally with a CD44v6-peptide (20 μg per mouse) (peptides of SEQ ID No.: 6 were tested) and 5 of the mice were injected with an unspecific control peptide (20 μg per mouse) three times a week. After four weeks, the mice were sacrificed and the tumors as well as the lung and lymph nodes of the animals were extracted. These organs were then fixed in 4% Formalin, processed and embedded in paraffin. […]

Substance: A-R-W-H-A (ARWHA) [SEQ ID NO: 3]
- CD44v6 mediated activation of Met (Met): still active in inhibiting CD44v6 mediated activation of Met
- CD44v6 mediated activation of Met (Met; listed as SEQ ID NO:3): capable of abrogating Met activation

Substance: KEKWFENEWQGKNP [SEQ ID NO: 10, rat CD44v6 14mer; control peptide in human models]
- HGF-induced phosphorylation/activation of ERK (CD44v6): no influence
- HGF-induced phosphorylation/activation of Met (CD44v6): no influence
- Metastasis (axillary lymph nodes and lungs) (BSp73ASs6 cells; 200 μg per injection i.t. or i.v., three times a week, four weeks, start after one week): completely inhibited metastasis
- Metastasis and micro-metastasis in lung sections (PAS and H&E histology) (BSp73ASs6 cells; 200 μg three times a week): no metastasis nor micro-metastasis could be detected
- Outgrowth of primary tumors (BSp73ASs6 cells; treatment for 28 days): not influenced
- Metastasis formation (liver) (L3.6pl cells): neither influence on metastasis formation; also recorded: no influence on metastasis formation
- Outgrowth of the primary tumor in the pancreas (L3.6pl cells): no influence on metastasis formation or on growth of the primary tumor

Substance: WFQNGWQGKNP (also: DY681 fluorescent dye label) [mv6 pep Dy681, reference compound]
- Ex vivo fluorescence in excised tumors and lungs (BSp73ASs6 tumors): not in tumors and lungs

Substance: v6 14mer: murine v6 14mer per FIG. 27 legend; no sequence printed; b173 and b212 say SEQ ID NO: 6 (KEQWFGNRWHEGYR)
- Total number of blood vessels in the primary tumor (anti-CD34 staining) (murine 4T1 cells; BALB/c mice, 4T1, 20 μg i.p. 3 times per week for two weeks): significantly reduced
- Size of the primary tumor (murine 4T1 cells; BALB/c mice, 4T1 in mammary fat pad, 20 μg i.p. 3 times per week for two weeks, 5 animals per group): significant decrease of tumor size
- Macroscopic lung metastases per animal (murine 4T1 cells; macroscopic analysis of the lungs, 5 animals per group): three animals showed no macroscopic metastases at all, whereas two animals had only one metastase
